# Marks after values point to notes of the source that are not given here.
# How the values were obtained:
# [1] = Stability of analytes in dried saliva Mitra VAMS tips; type: physicochemical; conditions: room temperature (with daily light exposure), n=6
# Description: Stability testing, a crucial component of method development and validation, was conducted through various experiments, including storage stability in the autosampler and stability of analytes in VAMS tips under different stress conditions. Analyte stability is deemed acceptable if the differences stay within the nominal range of ±15%. Additionally, the reproducibility of the injection was assessed during autosampler stability testing.
# [2] = Pharmacokinetics from plasma unbound levels in plasma ultrafiltrate (fMPA, fMPAG); type: in vivo, human; conditions: free level in plasma ultrafiltrate
# Description: (§1) The AUC0–4, Tmax, and Cmax parameters were calculated using the R (version 4.5.1) package software (R Core Team, 2025), supported by RStudio (version 2025.05.1+513) from Posit PBC software (Boston, MA, USA). […] The vMPA and vMPAG capillary blood levels were corrected using formulas validated in our department (partially published by Kocur et al.) and expressed as estimated capillary plasma concentrations. […] Individual PK profiles for each patient included in the study are provided in the Supplementary File (Figures S4 and S5).
# Next, the sample was centrifuged at 3000× g for 5 min at ambient conditions, and the supernatant was transferred into a chromatographic vial. Sample processing was performed at the Department of Drug Chemistry, Pharmaceutical and Biomedical Analysis, Medical University of Warsaw, Poland.
# (§2) From each patient (if they consented to all sampling types), four samples were collected simultaneously at all defined time points of the dynamic PK profile (0, 0.5, 1, 2, and 4 h after drug administration). Whole blood was collected using standard venipuncture by a phlebotomist into a K3-EDTA test tube (Sarstedt, Nümbrecht, Germany). Plasma for analytical determination was obtained by centrifuging a portion of the whole blood and stored at −40 °C until assay. At the same time, 10 µL capillary blood samples were collected from a finger prick using the Mitra™ device (VAMS samples were stored in light-protected aluminum zip bags with desiccant at room temperature).
# [3] = Pharmacokinetics from capillary blood collected with Mitra VAMS (vMPA, vMPAG); type: in vivo, human
# Description: as §1
# Subsequently, the tip (after at least 1 h of drying) was placed in an 1.5 mL Eppendorf-type test tube (Eppendorf AG, Hamburg, Germany) containing 150 μL of pure deionized water. Next, the test tube was shaken at room temperature for 1 h using the automatic rotary vortex. Subsequently, 10 μL of IS solution and 150 μL of the precipitation mixture were added. The sample was then processed as described in Section 4.3.4. Sample processing was carried out at the Department of Drug Chemistry, Pharmaceutical and Biomedical Analysis, Medical University of Warsaw, Poland [21].
# as §2
# [4] = Pharmacokinetics from total plasma levels (tMPA, tMPAG), LC-MS/MS; type: in vivo, human; conditions: total plasma level
# Description: as §1
# Briefly, 50 μL of plasma was diluted with 90 μL of deionized water, and 10 μL of IS (d3-MPA) was added. Next, 400 μL of the precipitation mixture (a 0.1 M aqueous zinc sulfate solution and acetonitrile, 50:50 (v/v)) was added. The sample was then shaken for 10 min at room temperature using an automatic rotary vortex (Ohaus, Parsippany, NJ, USA) and centrifuged for 10 min at 13,500× g at 4 °C thereafter. The supernatant was transferred into chromatographic vials and analyzed using LC-MS/MS. Sample processing was performed at the Department of Drug Chemistry, Pharmaceutical and Biomedical Analysis, Medical University of Warsaw, Poland.
# as §2
# [5] = cited from earlier work
# [6] = Pharmacokinetics from liquid (wet) saliva collected with Salivette (sMPA, sMPAG); type: in vivo, human
# Description: as §1
# The concentrations of sMPA and sMPAG in saliva were determined using a previously described LC-MS/MS method. Briefly, 100 µL of saliva was used for analysis. […] Samples were vortexed and evaporated to dryness. The dry residues were reconstituted in 100 μL of a mobile phase consisting of a 1:4 (v/v) mixture of methanol and water, both of which contained 0.1% formic acid. After double centrifugation, the samples were analyzed using a Shimadzu Ultra-Performance Liquid Chromatography (UPLC) system (Shimadzu Co., Kyoto, Japan) coupled with a triple quadrupole mass spectrometer (LCMS-8030; Simadzu Co., Kyoto, Japan). The method was linear over the concentration range of 2–500 μg/L for both sMPA and sMPAG. This part of the work was carried out with the support of the Centre of Innovative Pharmaceutical Technology, Poznan University of Medical Sciences (Poznan, Poland).
# Additionally, the unstimulated saliva samples were simultaneously collected using the Salivette® device (Sarstedt, Nümbrecht, Germany) and Mitra™ 20 µL microsampling tips (Neoteryx/Trajan, Torrance, CA, USA (all saliva samples simultaneously to plasma and capillary blood sampling: 0, 0.5, 1, 2, and 4 h after drug administration). Patients had not eaten for at least 30 min before saliva collection, and their mouths were rinsed with water. The study was conducted in accordance with the Declaration of Helsinki and the International Council for Harmonization Guideline for Good Clinical Practice. The protocol was approved by the Bioethics Committee of the Children’s Memorial Health Institute, Warsaw, Poland (approval No. 15/KBE/2023, with subsequent amendments). Written informed consent was obtained from all participants and their legal guardians.
# [7] = 0 h (pre-dose), n = 20, mean ± SD
# [8] = 0.5 h post-dose, n = 20, mean ± SD
# [9] = 1 h post-dose, n = 20, mean ± SD
# [10] = 2 h post-dose, n = 20, mean ± SD
# [11] = 4 h post-dose, n = 20, mean ± SD
# [12] = normalized to MMF dose, n = 20, mean (range)
# [13] = pediatric renal transplant recipients (n = 20) on MMF (CellCept), steady state, 0–4 h post-dose, mean (range)
# [14] = pediatric renal transplant recipients (n = 20) on MMF, mean (range)
# [15] = wet saliva, pediatric renal transplant recipients (n = 20) on MMF, mean (range)
compound,measurement,setting,value
"COc1c(C)c2c(c(O[C@@H]3O[C@H](C(=O)O)[C@@H](O)[C@H](O)[C@H]3O)c1C/C=C(\C)CCC(=O)O)C(=O)OC2 [MPAG, mycophenolic acid glucuronide]","stability, mean recovery","[1]; HQC, 1 week",96.66%
same,"stability, mean recovery","[1]; HQC, 2 weeks",94.51%
same,"stability, mean recovery","[1]; HQC, 24 hours",100.16%
same,"stability, mean recovery","[1]; HQC, 3 days",98.94%
same,"stability, mean recovery","[1]; LQC, 1 week",99.67%
same,"stability, mean recovery","[1]; LQC, 2 weeks",97.25%
same,"stability, mean recovery","[1]; LQC, 24 hours",103.15%
same,"stability, mean recovery","[1]; LQC, 3 days",100.46%
same,C0 concentration,[2]; [7],3893 ± 2073 ng/mL
same,C0.5 concentration,[2]; [8],6264 ± 4238 ng/mL
same,C1 concentration,[2]; [9],8.029 ± 4.393 mg/L
same,C2 concentration,[2]; [10],6.889 ± 3.791 mg/L
same,C4 concentration,[2]; [11],4.701 ± 2.218 mg/L
same,AUC(0–4) Normalized to Drug Dose,[2]; [12],66.47 (19.97–195.68) ^d mg × h/mL × g
same,Cmax,[2]; [13],8.98 (3.85–19.81) mg/L
same,AUC(0–4),[2]; [14],25200 ng·h/mL
same,Tmax,[2]; [14],1.55 (0.50–2.00) h
same,C0 concentration,[3]; [7],22481 ± 10350 ng/mL
same,C0.5 concentration,[3]; [8],34340 ± 14354 ng/mL
same,C1 concentration,[3]; [9],44.003 ± 20.520 mg/L
same,C2 concentration,[3]; [10],34.039 ± 12.356 mg/L
same,C4 concentration,[3]; [11],25.381 ± 11.908 mg/L
same,AUC(0–4),"[3]; corrected to estimated capillary plasma concentration, n = 20, mean (range)",133000 ng·h/mL
same,Cmax,"[3]; corrected to estimated capillary plasma concentration, pediatric renal transplant recipients (n = 20) on MMF, mean (range)",47.73 (19.80–110.76) mg/L
same,AUC(0–4) Normalized to Drug Dose,[3]; [12],361.35 (100.49–1064.33) ^d mg × h/mL × g
same,Tmax,[3]; [14],1.38 (0.50–2.00) h
same,C0 concentration,[4]; [7],23805 ± 12320 ng/mL
same,C0.5 concentration,[4]; [8],37800 ± 17081 ng/mL
same,C1 concentration,[4]; [9],48.647 ± 22.134 mg/L
same,C2 concentration,[4]; [10],34.258 ± 13.977 mg/L
same,C4 concentration,[4]; [11],27.075 ± 12.413 mg/L
same,AUC(0–4) Normalized to Drug Dose,[4]; [12],384.94 (106.81–1050.08) ^d mg × h/mL × g
same,Cmax,[4]; [13],49.54 (19.24–109.28) mg/L
same,AUC(0–4),[4]; [14],144000 ng·h/mL
same,Tmax,[4]; [14],1.33 (0.50–2.00) h
same,increase of concentration in severe renal impairment,"[5]; patients with severe renal impairment, up",3–6 fold
same,time of peak plasma concentration after administration,[5]; plasma,1 to 4 h
same,binding to albumin,[5]; stable transplant recipients,approximately 82%
same,Cmax,"[6]; wet saliva (unstimulated, Salivette), pediatric renal transplant recipients (n = 20) on MMF, 0–4 h post-dose, mean (range)",73.74 (22.00–146.00) µg/L
same,C0 concentration,"[6]; wet saliva, 0 h (pre-dose), n = 20, mean ± SD",19.135 ± 12.712 ng/mL
same,C0.5 concentration,"[6]; wet saliva, 0.5 h post-dose, n = 20, mean ± SD",39.659 ± 26.611 ng/mL
same,C1 concentration,"[6]; wet saliva, 1 h post-dose, n = 20, mean ± SD",70.173 ± 44.943 µg/L
same,C2 concentration,"[6]; wet saliva, 2 h post-dose, n = 20, mean ± SD",39.371 ± 25.210 µg/L
same,C4 concentration,"[6]; wet saliva, 4 h post-dose, n = 20, mean ± SD",22.417 ± 15.097 µg/L
same,AUC(0–4) Normalized to Drug Dose,"[6]; wet saliva, normalized to MMF dose, n = 20, mean (range)",352.10 (119.88–857.42) ^c µg × h/mL × g
same,AUC(0–4),[6]; [15],158 ng·h/mL
same,Tmax,[6]; [15],1.08 (0.50–2.00) h
